Test results as given in ChEMBL document CHEMBL1126846, “Two new unsaturated fatty acid ethanolamides in brain that bind to the cannabinoid receptor” (J Med Chem, 1993).

Molecular target: Cannabinoid receptor (Mus musculus, UniProt P47746+P47936)
Experiment: Ability to displace [3H]HU-243 binding to cannabinoid receptor in synaptosomal membrane
Assay type: cell membranes

| Structure (SMILES) | Ki [nM] |
| --- | --- |
| CCCCC/C=C\C/C=C\C/C=C\CCCCCCCC(=O)NCCO | 53.4 |
| CCCCC/C=C\C/C=C\C/C=C\C/C=C\CCCCCC(=O)NCCO | 34.4 |
